Measurements taken from PMC10924921, “Mi-2β promotes immune evasion in melanoma by activating EZH2 methylation” (Nature Communications, 2024).
Entries after “also recorded” stand apart in the source; their conditions may differ.

What was measured:
[1] = system: secreted Cxcl9 and Cxcl10, B16F10 cells; test: ELISA of secreted Cxcl9 and Cxcl10 in stimulated cells; format: cell-based, mouse; conditions: MS177 (10 μM), GSK126 (2μM) or Z36-MP5 (10 μM)
Procedure: B16F10 cells (1 × 10^6) with or without Mi-2β knockdown were seeded in 6-well plates in complete growth medium. Cell medium was changed to serum-free medium, before treatment with IFN-γ at indicated concentration for 24 h. The secreted chemokines were measured by mouse Cxcl9 ELISA kit (ab203364) and mouse Cxcl10 ELISA Kit (ab214563), according to the manufacturer’s protocols. Isolated graft tumors were prepared and minced with blades, then tumor tissues were cultured in PBS (250 mg/500 µl) for 4 h at 37 °C. The secreted amount of the chemokines in the culture were measured by mouse Cxcl9 ELISA kit (ab203364) and mouse Cxcl10 ELISA Kit (ab214563), according to the manufacturer’s protocols.
Supplementary Figure 10. Comparison of tumor growth inhibition effects between Z36-MP5 and EZH2 inhibitors. a Mice (n=8) bearing B16F10 cells were treated with control IgG or anti-PD-1 antibody in combination with Z36-MP5 or GSK126, as indicated. A mouse survival curve is shown, with log-rank test for mouse survival P value. b,c The epigenetic modifications of H3 (H3K27ac, H3K27me1 and H3K27me3) were measured in B16F10 cells stimulated with GSK126 or Z36-MP5 as indicated (n = 3, independent experiments). d The amount of secreted Cxcl9 and Cxcl10 was measured by ELISA in […]
represent mean ± SD. The unpaired, two tailed t-test. Source data are provided as a Source Data file. […]

[2] = system: Pmel-1 T cells co cultured with tumor cells; test: Pmel-1 T-cell killing of tumor cells; format: cell-based, mouse
Procedure: To test whether Z36-MP5 affects cell proliferation, cells were seeded into 96-well plates at a density of 1 × 10^3 cells/100 μl per well. CCK-8 was used to detect changes in proliferation ability after 3 days of treatment with Z36-MP5 (25 μM). To test whether Mi-2β expression in T cells or treatment of T cells with Z36-MP5 affects the ability of T cells to kill tumor cells, Mi-2β in Pmel-1 T cells was manipulated or Pmel-1 cells were exposed to Z36-MP5 (25 μM) for 24 hrs. The number of cells was quantified. One thousand Pmel-1 T cells were then co cultured with 1000 tumor cells for 24 hrs, and the number of tumor cells was counted.
Supplementary Figure 8. In vitro assay for Mi-2β inhibitors. a The body weight changes of C57BL/6J mice treated with Z36-MP5 (30 mg/kg/day) for 2 weeks. Data are mean ± SEM (n=5). b H&E staining of tissues in C57BL/6J mice treated with or without Z36 -MP5 (30 mg/kg/day) for 2 weeks. […]
The growth of tumor grafts was measured. n = 5. g Mice bearing B16F10 cell s were treated with MS177 (100 mg/kg, 5 days) and then Z36 -MP5 (30 mg/kg/day) or vehicles, accompanied with anti -PD-1 antibody […]

Mi-2β mutation (H727A) = target: T1, Mi-2β mutation (H727A) (Homo sapiens, UniProt Q14839, H727A); test: FRET-based nucleosome repositioning assay with mutant Mi-2β; format: biochemical; conditions: ATP 1 mM, Z36-MP5 10 µM
T1 construct: made in house
T1 sequence (Q14839 whole entry H727A): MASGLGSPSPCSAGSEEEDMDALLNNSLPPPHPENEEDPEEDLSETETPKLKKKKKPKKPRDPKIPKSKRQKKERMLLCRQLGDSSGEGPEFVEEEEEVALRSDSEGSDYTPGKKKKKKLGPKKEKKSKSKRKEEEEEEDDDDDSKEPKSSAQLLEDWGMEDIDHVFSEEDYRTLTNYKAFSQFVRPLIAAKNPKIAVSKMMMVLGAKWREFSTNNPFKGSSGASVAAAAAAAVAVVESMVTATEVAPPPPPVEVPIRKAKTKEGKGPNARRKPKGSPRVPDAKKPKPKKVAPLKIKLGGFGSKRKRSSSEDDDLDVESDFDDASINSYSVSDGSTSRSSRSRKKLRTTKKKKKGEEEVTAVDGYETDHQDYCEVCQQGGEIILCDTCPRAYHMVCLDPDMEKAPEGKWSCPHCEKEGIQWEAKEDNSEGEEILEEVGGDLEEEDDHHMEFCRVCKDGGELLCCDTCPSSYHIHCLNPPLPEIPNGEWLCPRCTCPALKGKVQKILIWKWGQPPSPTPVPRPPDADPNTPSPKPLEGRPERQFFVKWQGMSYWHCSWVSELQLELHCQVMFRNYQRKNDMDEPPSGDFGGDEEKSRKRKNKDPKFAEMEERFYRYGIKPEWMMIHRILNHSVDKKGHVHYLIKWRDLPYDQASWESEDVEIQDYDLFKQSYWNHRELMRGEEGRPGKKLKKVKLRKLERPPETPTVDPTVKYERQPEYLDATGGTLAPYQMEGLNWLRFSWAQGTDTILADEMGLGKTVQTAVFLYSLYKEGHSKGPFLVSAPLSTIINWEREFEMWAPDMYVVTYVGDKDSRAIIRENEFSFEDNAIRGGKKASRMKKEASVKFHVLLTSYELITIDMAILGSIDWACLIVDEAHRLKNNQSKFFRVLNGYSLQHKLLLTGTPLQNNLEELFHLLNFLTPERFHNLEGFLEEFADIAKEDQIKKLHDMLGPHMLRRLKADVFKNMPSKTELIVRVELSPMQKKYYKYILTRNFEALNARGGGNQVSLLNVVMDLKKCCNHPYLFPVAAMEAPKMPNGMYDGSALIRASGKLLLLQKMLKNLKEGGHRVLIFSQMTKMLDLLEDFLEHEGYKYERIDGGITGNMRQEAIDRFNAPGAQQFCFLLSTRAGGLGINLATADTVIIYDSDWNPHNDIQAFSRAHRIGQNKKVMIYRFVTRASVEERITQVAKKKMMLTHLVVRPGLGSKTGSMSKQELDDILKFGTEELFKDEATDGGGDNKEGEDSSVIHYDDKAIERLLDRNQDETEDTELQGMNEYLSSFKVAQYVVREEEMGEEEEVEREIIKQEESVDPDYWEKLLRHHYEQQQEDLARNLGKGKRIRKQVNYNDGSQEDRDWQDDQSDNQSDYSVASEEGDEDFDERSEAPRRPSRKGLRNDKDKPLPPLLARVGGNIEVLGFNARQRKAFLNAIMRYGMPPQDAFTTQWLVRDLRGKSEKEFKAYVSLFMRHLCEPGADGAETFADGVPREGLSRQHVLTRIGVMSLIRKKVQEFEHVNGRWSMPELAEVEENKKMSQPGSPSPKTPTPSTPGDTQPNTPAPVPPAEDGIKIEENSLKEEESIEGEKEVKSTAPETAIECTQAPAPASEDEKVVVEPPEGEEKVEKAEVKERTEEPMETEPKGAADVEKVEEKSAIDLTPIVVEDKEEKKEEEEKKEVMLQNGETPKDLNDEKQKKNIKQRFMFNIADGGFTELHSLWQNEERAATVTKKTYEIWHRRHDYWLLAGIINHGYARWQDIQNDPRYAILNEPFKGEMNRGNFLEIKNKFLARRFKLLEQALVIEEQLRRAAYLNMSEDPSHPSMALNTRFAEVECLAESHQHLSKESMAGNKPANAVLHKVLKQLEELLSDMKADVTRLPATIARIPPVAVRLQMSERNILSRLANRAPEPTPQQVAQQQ
Procedure: based nucleosome repositioning assays were performed with different concentrations of Mi-2β and a non-
limiting ATP concentration (1 mM) for the indicated incubation time (n=3). c The ATP titration
(concentrations ranging from 0.1 to 300 µM) was performed with the FRET-based nucleosome
time. […] Values represent mean
based nucleosome repositioning assays.

[3] = Estimated blood concentration in mice; format: in vivo; conditions: intraperitoneal 30 mg per kg, extrapolated from rat
Description: FLT3 kinase inhibitor for acute myeloid leukemia with FLT3 mutations. J Med Chem, 61, 3855-3869 (2018); Lexian Tong et al., Identification of 2-aminopyrimidine derivatives as FLT3 kinase inhibitors with high selectivity over c-KIT. J Med Chem, 65, 3229-3248 (2022)). In these cases, the cellular form of the FLT3-WT or FLT3-ITD mutant was preferentially bound. Another example is paclitaxel, a microtubule-stabilizing agent that is widely used in cancer chemotherapy. Biochemical competitive […]
(Shubhada Sharma, et al., Dissecting paclitaxel–microtubule association: quantitative assessment of the 2’-OH group. Biochemistry, 52, 2328-2336 (2013)). Paclitaxel sensitizes BG-1 ovarian cancer cells to radiation at a dose that was not cytotoxic and […]
sensitizer: a flow cytometric study. Gynecol Oncol, 50, 89-93 (1993)).
Like the Mi-2β silencing by shMi-2β (Supplementary Fig. 3C), we observed substantial increases in expressions of Mi-2β target genes, Cxcl9 and Cxcl10, to similar levels after treatment of B16F10 cells with Z36-MP5 at concentrations 5 μM to 100 μM (Fig. 5F).
MP5 treatment would be sufficient for inhibiting Mi-2β in cells. Moreover, we observed a maintenance of blood concentration of 4 μM to 10 μM Z36-MP5 in rat for around 1 hour after the intraperitoneal injection at a dose of Z36-MP5 as low as 1 mg per kg […]

## Cn1c(=O)[nH]c2ccc(-c3cccc(C(=O)NC4CCn5ccnc5C4)c3)cc21 (stereo not shown) [Z36-MP5]
[1]
  induction of ISGs compared with GSK126 or MS177: more efficiently induced
[2]
  killing potential of T cells: not significantly inhibited
Mi-2β mutation (H727A)
  sensitivity of Mi-2β H727A mutant to inhibitor: no longer sensitive; also recorded: histidine 727 of Mi-2β dependent
[3]
  estimated highest blood concentration in mice: around 0.97 mM
